The Ki is the dissociation constant of the complex between target and ligand, obtained from inhibition or displacement. Read a high Ki as a looser hold on the target.

Structures can show the parent of a compound that is named as a salt.

Drawing on patent US9408842B2, “Substituted pyrano and furanoquinolines, their preparation and use as medicaments” (LABORATORIOS DEL DR. ESTEVE S.A., priority 2012, dated 2016), this text covers Ki for 22 molecules.

In the assay the target is T1, σ1-receptor (Cavia porcellus, UniProt Q60492).
T1 construct: Guinea pig brains were homogenized in 10 vols; (w/v) of Tris-HCl 50 mM 0.32 M sucrose, pH 7.4; from tissue; host or cells: guinea pig brain membranes
T1 sequence (Q60492 whole entry): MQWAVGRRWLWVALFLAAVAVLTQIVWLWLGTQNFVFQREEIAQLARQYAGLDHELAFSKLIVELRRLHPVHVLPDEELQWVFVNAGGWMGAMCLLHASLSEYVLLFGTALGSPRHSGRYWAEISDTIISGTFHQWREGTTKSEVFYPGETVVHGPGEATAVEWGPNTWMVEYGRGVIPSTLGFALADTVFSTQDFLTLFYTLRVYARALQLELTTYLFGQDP
The assay is described as follows: binding assay for the σ1-receptor, [3H]-(+)-pentazocine, brain membranes. The note with it: guinea pig brain membranes; radioligand [3H]-(+)-pentazocine 5.0 nM; 150 min at 37° C.; nonspecific binding with 1 μM haloperidol. How it is done:
Guinea pig brains were homogenized in 10 vols. (w/v) of Tris-HCl 50 mM 0.32 M sucrose, pH 7.4, with a Kinematica Polytron PT 3000 at 15000 r.p.m. for 30 s. The homogenate was centrifuged at 1000 g for 10 min at 4° C. and the supernatants collected and centrifuged again at 48000 g for 15 min at 4° C. The pellet was resuspended in 10 volumes of Tris-HCl buffer (50 mM, pH 7.4), incubated at 37° C. for 30 min, and centrifuged at 48000 g for 20 min at 4° C. Following this, the pellet was re-suspended in fresh Tris-HCl buffer (50 mM, pH 7.4) and stored on ice until use.
The radioligand used was [^3H]-(+)-pentazocine at 5.0 nM and the final volume was 200 μl. The incubation was initiated with the addition of 100 μl of membrane at a final tissue concentration of approximately 5 mg tissue net weight/mL and the incubation time was 150 m. at 37° C. After incubation, the membranes were collected onto pretreated glass fiber filterplate (MultiScreen-FC, Millipore), with polyethylenimine 0.1%. The filters were washed two times with 200 μl of washing buffer (50 mM Tris Cl, pH=7.4) and then 25 μl of Ecoscint H liquid scintillation cocktail were added. […] Nonspecific binding was determined with 1 μM haloperidol.

The molecule `Clc1cccc(Oc2ccc3c(c2)[C@H]2OCCC[C@H]2[C@@H](C2CCCCC2)N3)c1` (racemic) [Example 1, (4aSR*,5RS*,10bSR*)-9-(3-chlorophenoxy)-5-cyclohexyl-3,4,4a,5,6,10b-hexahydro-2H-pyrano[3,2-c]quinoline hydrochloride] came in with a Ki of 187 nM.

`CC(C)CCOc1ccc2c(c1)[C@H]1OCCC[C@H]1[C@@H](C1CCN(Cc3ccccc3)CC1)N2` (racemic) [Example 6, (4aSR*,5RS*,10bSR*)-5-(1-benzylpiperidin-4-yl)-9-(isopentyloxy)-3,4,4a,5,6,10b-hexahydro-2H-pyrano[3,2-c]quinoline hydrochloride] came in with a Ki of 15.1 nM.

For the molecule `CCCCOc1ccc2c(c1)[C@H]1OCCC[C@H]1[C@@H](C1CCCCC1)N2` (racemic) [Example 16, (4aSR*,5RS*,10bSR*)-9-butoxy-5-cyclohexyl-3,4,4a,5,6,10b-hexahydro-2H-pyrano[3,2-c]quinoline hydrochloride], the affinity corresponds to a Ki of 122 nM.

`CC(C)CCOc1ccc2c(c1)[C@H]1OCCC[C@H]1[C@@H](C1CCCCC1)N2` (racemic) [Example 27, (4aSR*,5RS*,10bSR*)-5-cyclohexyl-9-(isopentyloxy)-3,4,4a,5,6,10b-hexahydro-2H-pyrano[3,2-c]quinoline hydrochloride] registered an inhibition constant Ki of 51.6 nM.

In the case of `CC(C)CCOc1ccc2c(c1)[C@H]1OCC[C@H]1[C@@H](C1CCCCC1)N2` (racemic) [Example 32, (3aSR*,4RS*,9bSR*)-4-cyclohexyl-8-(isopentyloxy)-2,3,3a,4,5,9b-hexahydrofuro[3,2-c]quinoline hydrochloride], the Ki was 108 nM. Against the preceding molecule, the Ki is about 2.1-fold higher.

Molecule `c1cc2c(cc1OCCN1CCOCC1)[C@H]1OCC[C@H]1[C@@H](C1CCCCC1)N2` (racemic) [Example 41, (3aSR*,4RS*,9bSR*)-4-cyclohexyl-8-(2-morpholinoethoxy)-2,3,3a,4,5,9b-hexahydrofuro[3,2-c]quinoline hydrochloride] came in with an inhibitory constant (Ki) of 131 nM.

In the case of `Clc1ccc(Oc2ccc3c(c2)[C@H]2OCCC[C@H]2[C@@H](C2CCCCC2)N3)cc1` (racemic) [Example 55, (4aSR*,5RS*,10bSR*)-9-(4-chlorophenoxy)-5-cyclohexyl-3,4,4a,5,6,10b-hexahydro-2H-pyrano[3,2-c]quinoline hydrochloride], the Ki is 194 nM.

On to `CCCCCc1ccc2c(c1)[C@H]1OCCC[C@H]1[C@@H](C1CCCCC1)N2` (racemic) [Example 59, (4aSR*,5RS*,10bSR*)-5-cyclohexyl-9-pentyl-3,4,4a,5,6,10b-hexahydro-2H-pyrano[3,2-c]quinoline], for which the affinity, expressed as Ki, was 132 nM.

Molecule `CCCCCc1ccc2c(c1)[C@H]1OCCC[C@H]1[C@@H](C1CCCCC1)N2` (racemic) [Example 60, (4aSR*,5RS*,10bSR*)-5-cyclohexyl-9-pentyl-3,4,4a,5,6,10b-hexhaydro-2H-pyrano[3,2-c]quinoline hydrochloride] came in with a Ki of 42.6 nM. Against the preceding molecule, the Ki is about 3.1-fold lower.

On to `CCCCCc1ccc2c(c1)[C@H]1OCCC[C@H]1[C@@H](C1CCOCC1)N2` (racemic) [Example 63, (4aSR*,5RS*,10bSR*)-9-pentyl-5-(tetrahydro-2H-pyran-4-yl)-3,4,4a,5,6,10b-hexahydro-2H-pyrano[3,2-c]quinoline hydrochloride], for which the Ki turned out to be 61.9 nM.

For the molecule `c1cc2c(cc1OCCN1CCOCC1)[C@H]1OCCC[C@H]1[C@@H](C1CCCCC1)N2` (racemic) [Example 67, (4aSR*,5RS*,10bSR*)-5-cyclohexyl-9-(2-morpholinoethoxy)-3,4,4a,5,6,10b-hexahydro-2H-pyrano[3,2-c]quinoline], the affinity corresponds to a Ki of 311 nM.

In turn, `c1ccc(Oc2ccc3c(c2)[C@H]2OCCC[C@H]2[C@@H](C2CCSCC2)N3)cc1` (racemic) [Example 71, (4aSR*,5RS*,10bSR*)-9-phenoxy-5-(tetrahydro-2H-thiopyran-4-yl)-3,4,4a,5,6,10b-hexahydro-2H-pyrano[3,2-c]quinoline hydrochloride] registered a Ki of 349 nM.

`CCCCCc1ccc2c(c1)[C@H]1OCC[C@H]1[C@@H](C1CCCCC1)N2` (racemic) [Example 84, (3aSR*,4RS*,9bSR*)-4-cyclohexyl-8-pentyl-2,3,3a,4,5,9b-hexahydrofuro[3,2-c]quinoline hydrochloride]: the Ki amounted to 244 nM.

In turn, `CCCCCc1ccc2c(c1)[C@H]1OCC[C@H]1[C@@H](C1CCOCC1)N2` (racemic) [Example 85, (3aSR*,4RS*,9bSR*)-8-pentyl-4-(tetrahydro-2H-pyran-4-yl)-2,3,3a,4,5,9b-hexahydrofuro[3,2-c]quinoline hydrochloride] gave a Ki of 155 nM. This Ki is about 1.6-fold lower than that of the molecule before.

Molecule `Clc1ccc(Oc2ccc3c(c2)[C@H]2OCC[C@H]2[C@@H](C2CCCCC2)N3)cc1` (racemic) [Example 86, (3aSR*,4RS*,9bSR*)-8-(4-chlorophenoxy)-4-cyclohexyl-2,3,3a,4,5,9b-hexahydrofuro[3,2-c]quinoline] gave a Ki of 78.2 nM. Against the preceding molecule, the Ki is about 2-fold lower.

Consider `Clc1ccc(Oc2ccc3c(c2)[C@H]2OCC[C@H]2[C@@H](C2CCCCC2)N3)cc1` (racemic) [Example 87, (3aSR*,4RS*,9bSR*)-8-(4-chlorophenoxy)-4-cyclohexyl-2,3,3a,4,5,9b-hexahydrofuro[3,2-c]quinoline hydrochloride], for which the Ki turned out to be 302 nM.

Regarding `Fc1ccc(COc2ccc3c(c2)[C@H]2OCC[C@H]2[C@@H](C2CCCCC2)N3)cc1` (racemic) [Example 91, (3aSR*,4RS*,9bSR*)-4-cyclohexyl-8-(4-fluorobenzyloxy)-2,3,3a,4,5,9b-hexahydrofuro[3,2-c]quinoline hydrochloride], the Ki was 267 nM.

In the case of `Clc1ccc(Oc2ccc3c(c2)[C@H]2OCC[C@H]2[C@@H](C2CCCCC2)N3)cc1Cl` (racemic) [Example 92, (3aSR*,4RS*,9bSR*)-4-cyclohexyl-8-(3,4-dichlorophenoxy)-2,3,3a,4,5,9b-hexahydrofuro[3,2-c]quinoline hydrochloride], the affinity, expressed as Ki, was 110 nM.

Molecule `Clc1ccc(Oc2ccc3c(c2)[C@H]2OCCC[C@H]2[C@@H](C2CCCCC2)N3)cc1Cl` (racemic) [Example 93, (4aSR*,5RS*,10bSR*)-5-cyclohexyl-9-(3,4-dichlorophenoxy)-3,4,4a,5,6,10b-hexahydro-2H-pyrano[3,2-c]quinoline hydrochloride] registered a Ki of 79.3 nM. The Ki values of the last two molecules are within 1.5-fold of each other.

`CCCCCc1ccc2c(c1)[C@H]1OCC[C@H]1[C@@H](C1CCSCC1)N2` (racemic) [Example 95, (3aSR*,4RS*,9bSR*)-8-pentyl-4-tetrahydro-2H-thiopyran-4-yl)-2,3,3a,4,5,9b-hexahydrofuro[3,2-c]quinoline hydrochloride] came in with a Ki of 89.1 nM. This Ki and that of the molecule before are within 1.5-fold of each other.

`CC(C)CCOc1ccc2c(c1)[C@H]1OCCC[C@H]1[C@@H](C1CCNCC1)N2` (racemic) [Example 100, (4aSR*,5RS*,10bSR*)-9-(isopentyloxy)-5-(piperidin-4-yl)-3,4,4a,5,6,10b-hexahydro-2H-pyrano[3,2-c]quinoline hydrochloride]: the Ki was found to be 536 nM.

In the case of `CC(C)CCOc1ccc2c(c1)[C@H]1OCCC[C@H]1[C@@H](C1CCOCC1)N2` (racemic) [Example 101, (4aSR*,5RS*,10bSR*)-9-(isopentyloxy)-5-(tetrahydro-2H-pyran-4-yl)-3,4,4a,5,6,10b-hexahydro-2H-pyrano[3,2-c]quinoline hydrochloride], affinity was put at a Ki of 84 nM.
